Data set [1] has as its target T1, organic cation transporter-2 (OCT2) (Homo sapiens, UniProt O15244).
T1 sequence (O15244 1-555): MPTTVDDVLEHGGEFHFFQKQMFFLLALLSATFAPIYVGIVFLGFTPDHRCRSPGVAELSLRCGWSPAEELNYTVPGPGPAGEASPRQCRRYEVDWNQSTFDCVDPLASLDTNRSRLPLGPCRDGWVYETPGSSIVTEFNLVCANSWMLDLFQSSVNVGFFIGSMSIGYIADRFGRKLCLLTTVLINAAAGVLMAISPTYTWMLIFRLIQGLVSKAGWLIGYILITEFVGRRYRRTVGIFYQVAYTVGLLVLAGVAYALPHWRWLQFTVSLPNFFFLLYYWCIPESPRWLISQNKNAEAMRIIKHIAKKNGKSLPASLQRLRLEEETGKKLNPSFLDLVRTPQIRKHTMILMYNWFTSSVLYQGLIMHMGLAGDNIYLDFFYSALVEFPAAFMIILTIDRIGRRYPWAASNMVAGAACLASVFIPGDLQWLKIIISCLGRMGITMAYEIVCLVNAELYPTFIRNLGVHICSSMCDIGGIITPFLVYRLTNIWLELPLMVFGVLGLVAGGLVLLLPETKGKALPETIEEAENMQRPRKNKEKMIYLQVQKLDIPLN
In words: Uptake in HEK-293 cells transfected with OCT2 vs empty vector. The note with it: HEK-293/OCT2, 5 minutes incubation, 0.5 μg/mL.

The target of the next data set is T2, human MRP4 (Homo sapiens, UniProt O15439).
T2 sequence (O15439 1-1325): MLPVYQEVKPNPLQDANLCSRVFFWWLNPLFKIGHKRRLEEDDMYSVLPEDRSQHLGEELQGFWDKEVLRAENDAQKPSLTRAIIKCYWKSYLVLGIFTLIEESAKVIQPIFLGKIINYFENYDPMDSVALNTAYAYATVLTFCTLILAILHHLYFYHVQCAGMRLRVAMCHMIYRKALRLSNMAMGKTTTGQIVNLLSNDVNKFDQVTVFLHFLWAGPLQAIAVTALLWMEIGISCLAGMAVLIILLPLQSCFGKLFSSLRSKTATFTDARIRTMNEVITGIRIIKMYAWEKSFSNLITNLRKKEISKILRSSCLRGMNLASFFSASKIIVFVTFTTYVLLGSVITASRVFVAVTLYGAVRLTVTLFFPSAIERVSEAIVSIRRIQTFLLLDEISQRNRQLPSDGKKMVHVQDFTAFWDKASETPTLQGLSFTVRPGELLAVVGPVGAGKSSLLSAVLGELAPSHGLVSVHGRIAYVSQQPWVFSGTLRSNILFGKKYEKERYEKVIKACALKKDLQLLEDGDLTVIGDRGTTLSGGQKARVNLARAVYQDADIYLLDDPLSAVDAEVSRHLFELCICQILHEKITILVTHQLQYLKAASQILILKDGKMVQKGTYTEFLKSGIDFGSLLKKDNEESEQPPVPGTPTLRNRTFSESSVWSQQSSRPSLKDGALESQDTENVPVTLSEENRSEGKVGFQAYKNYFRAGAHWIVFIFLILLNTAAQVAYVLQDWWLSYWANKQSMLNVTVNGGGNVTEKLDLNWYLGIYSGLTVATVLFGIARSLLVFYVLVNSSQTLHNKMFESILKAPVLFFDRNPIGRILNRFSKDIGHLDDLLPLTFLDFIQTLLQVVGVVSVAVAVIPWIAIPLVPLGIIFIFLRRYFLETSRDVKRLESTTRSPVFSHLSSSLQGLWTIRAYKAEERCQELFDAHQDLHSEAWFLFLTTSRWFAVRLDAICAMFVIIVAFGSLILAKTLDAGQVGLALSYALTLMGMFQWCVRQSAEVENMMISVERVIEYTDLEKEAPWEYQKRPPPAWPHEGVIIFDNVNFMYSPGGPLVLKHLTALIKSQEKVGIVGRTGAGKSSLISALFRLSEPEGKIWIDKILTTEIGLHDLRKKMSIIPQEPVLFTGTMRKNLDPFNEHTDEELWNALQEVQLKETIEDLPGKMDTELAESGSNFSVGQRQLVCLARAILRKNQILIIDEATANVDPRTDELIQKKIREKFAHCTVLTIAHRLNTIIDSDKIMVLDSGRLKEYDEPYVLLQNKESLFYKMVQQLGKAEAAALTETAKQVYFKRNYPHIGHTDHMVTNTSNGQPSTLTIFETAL
In words: Intracellular accumulation in Saos2-MRP4 cells vs Saos2-pcDNA3.1. The note with it: Saos2-MRP4 vs Saos2-pcDNA3.1, 0.5 μg/mL, 37°C.

For data set [2] the following is noted: humans; cited from earlier work.
The target of a further data set is T3, human BCRP (Homo sapiens, UniProt Q9UNQ0).
T3 sequence (Q9UNQ0 1-655): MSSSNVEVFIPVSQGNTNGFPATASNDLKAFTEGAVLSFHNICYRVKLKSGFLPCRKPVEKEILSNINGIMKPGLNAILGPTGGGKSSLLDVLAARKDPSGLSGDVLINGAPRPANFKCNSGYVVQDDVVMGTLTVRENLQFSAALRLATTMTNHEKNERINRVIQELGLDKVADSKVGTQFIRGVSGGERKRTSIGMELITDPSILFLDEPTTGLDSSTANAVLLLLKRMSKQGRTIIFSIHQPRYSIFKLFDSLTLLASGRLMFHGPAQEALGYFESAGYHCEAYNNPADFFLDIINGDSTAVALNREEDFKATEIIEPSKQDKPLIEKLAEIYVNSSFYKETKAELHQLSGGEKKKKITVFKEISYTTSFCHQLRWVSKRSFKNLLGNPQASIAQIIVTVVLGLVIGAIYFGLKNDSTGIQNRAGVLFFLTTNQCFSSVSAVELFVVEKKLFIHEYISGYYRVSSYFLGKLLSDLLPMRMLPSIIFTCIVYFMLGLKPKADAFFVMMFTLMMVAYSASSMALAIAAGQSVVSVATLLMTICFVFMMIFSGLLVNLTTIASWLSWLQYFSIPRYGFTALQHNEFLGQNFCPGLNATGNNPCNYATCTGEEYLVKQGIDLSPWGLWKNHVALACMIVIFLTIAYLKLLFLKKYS
The data set is described as follows: Intracellular accumulation in Saos2-BCRP cells vs Saos2-pcDNA3.1. As to conditions: for Effect of elacridar on intracellular accumulation: Saos2-BCRP cells, pre-incubation 30 minutes with elacridar (4 μM); for Intracellular accumulation vs control cells: Saos2-BCRP vs Saos2-pcDNA3.1, 0.5 μg/mL, 37°C.

“Also recorded” adds a separate entry of the source. Read-outs that look alike come from different tables or passages of the source.

Take `C#Cc1cccc(Nc2ncnc3cc(OCCOC)c(OCCO)cc23)c1` [OSI-420]: where the note is “mouse, plasma”, the “Differences in unbound fraction between strains” value is reported as “No significant differences” and the “Unbound fraction (fu)” value was 6.6 % ± 0.7%. For the same compound, the “Uptake vs empty vector HEK-293 cells” value in data set [1] was “significantly increased”. The “Intracellular accumulation vs control cells” value on human MRP4 is on record as “did not show a significant difference”. For the same compound, the “Systemic exposure relative to that of erlotinib” value in data set [2] is on record as 10-20%. On human BCRP, the “Effect of elacridar on intracellular accumulation” value is listed as “significantly increased” and the “Intracellular accumulation vs control cells” value is “significantly lower; also recorded: significantly reduced”.

Turning to `C#Cc1cccc(Nc2ncnc3cc(OCCOC)c(OCCOC)cc23)c1` [erlotinib, Erlotinib], the “Differences in unbound fraction between strains” value (plasma from each mouse strain, equilibrium dialysis) is reported as “No significant differences”. Further, the “Uptake vs empty vector HEK-293 cells” value in data set [1] is given as “significantly increased”; in data set [1] (listed as Erlotinib), “higher”. Further, the “Intracellular accumulation vs control cells” value at human MRP4 is recorded as “did not show a significant difference”; at human BCRP, “significantly lower; also recorded: significantly reduced”. Moreover, the “Renal clearance component as share of overall elimination” value in data set [2] is listed as ~ 10%. Also, the “Effect of elacridar on intracellular accumulation” value at human BCRP was “significantly increased”.
